# Assay results taken from PubChem BioAssay (NCI).
#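 Each compound was tested at five concentrations against cells in 96-well plates for 48 hours. GI50 = concentration required for 50% inhibition of growth. TGI is the concentration that stops growth completely.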
# What was measured:
# Test in all cases: growth of human tumour cells (NCI), 48 h
# SR leukemia = tested on: SR leukemia
# RPMI-8226 leukemia = tested on: RPMI-8226 leukemia
# PC-3 prostate = tested on: PC-3 prostate
# HCT-116 colon = tested on: HCT-116 colon
# SK-MEL-5 melanoma = tested on: SK-MEL-5 melanoma
# ACHN renal = tested on: ACHN renal
# TK-10 renal = tested on: TK-10 renal
# HCT-15 colon = tested on: HCT-15 colon
# NCI/ADR-RES ovarian = tested on: NCI/ADR-RES ovarian
# HS 578T breast = tested on: HS 578T breast
# MDA-MB-435 = tested on: MDA-MB-435
# BT-549 breast = tested on: BT-549 breast
# NCI-H23 lung = tested on: NCI-H23 lung
# SF-268 CNS = tested on: SF-268 CNS
# U251 CNS = tested on: U251 CNS
# CAKI-1 renal = tested on: CAKI-1 renal
# HOP-62 NSCLC = tested on: HOP-62 NSCLC
# KM12 colon = tested on: KM12 colon
# A498 renal = tested on: A498 renal
# SW-620 colon = tested on: SW-620 colon
# LOX IMVI melanoma = tested on: LOX IMVI melanoma
# SF-295 CNS = tested on: SF-295 CNS
# MDA-MB-231 breast = tested on: MDA-MB-231 breast
# UACC-257 melanoma = tested on: UACC-257 melanoma
# UO-31 renal = tested on: UO-31 renal
# SF-539 CNS = tested on: SF-539 CNS
# HCC-2998 colon = tested on: HCC-2998 colon
# DU-145 prostate = tested on: DU-145 prostate
# SNB-75 CNS = tested on: SNB-75 CNS
smiles,measurement,setting,value
COc1cc2c(cc1I)-c1c(cc(OC)c(OC)c1OC)CC[C@@H]2NC(C)=O,GI50,SR leukemia,391 nM
same,TGI,SR leukemia,34600 nM
same,GI50,RPMI-8226 leukemia,505 nM
same,TGI,RPMI-8226 leukemia,> 100000 nM
same,GI50,PC-3 prostate,464 nM
same,TGI,PC-3 prostate,> 42200 nM
same,GI50,HCT-116 colon,384 nM
same,TGI,HCT-116 colon,7140 nM
same,GI50,SK-MEL-5 melanoma,290 nM
same,TGI,SK-MEL-5 melanoma,1100 nM
same,GI50,ACHN renal,614 nM
same,TGI,ACHN renal,33800 nM
same,GI50,TK-10 renal,607 nM
same,TGI,TK-10 renal,27300 nM
same,GI50,HCT-15 colon,419 nM
same,TGI,HCT-15 colon,16800 nM
same,GI50,NCI/ADR-RES ovarian,985 nM
same,TGI,NCI/ADR-RES ovarian,6180 nM
same,GI50,HS 578T breast,207 nM
same,TGI,HS 578T breast,593 nM
same,GI50,MDA-MB-435,213 nM
same,TGI,MDA-MB-435,550 nM
same,GI50,BT-549 breast,691 nM
same,TGI,BT-549 breast,3160 nM
same,GI50,NCI-H23 lung,413 nM
same,TGI,NCI-H23 lung,5650 nM
same,GI50,SF-268 CNS,424 nM
same,TGI,SF-268 CNS,6540 nM
same,GI50,U251 CNS,412 nM
same,TGI,U251 CNS,12200 nM
same,GI50,CAKI-1 renal,522 nM
same,TGI,CAKI-1 renal,> 47000 nM
same,GI50,HOP-62 NSCLC,556 nM
same,TGI,HOP-62 NSCLC,> 33000 nM
same,GI50,KM12 colon,390 nM
same,TGI,KM12 colon,5600 nM
same,GI50,A498 renal,231 nM
same,TGI,A498 renal,725 nM
same,GI50,SW-620 colon,312 nM
same,TGI,SW-620 colon,42200 nM
same,GI50,LOX IMVI melanoma,573 nM
same,TGI,LOX IMVI melanoma,18700 nM
same,GI50,SF-295 CNS,299 nM
same,TGI,SF-295 CNS,3410 nM
same,GI50,MDA-MB-231 breast,834 nM
same,TGI,MDA-MB-231 breast,7210 nM
same,GI50,UACC-257 melanoma,415 nM
same,TGI,UACC-257 melanoma,60000 nM
same,GI50,UO-31 renal,517 nM
same,TGI,UO-31 renal,> 36800 nM
same,GI50,SF-539 CNS,239 nM
same,TGI,SF-539 CNS,737 nM
same,GI50,HCC-2998 colon,664 nM
same,TGI,HCC-2998 colon,6310 nM
same,GI50,DU-145 prostate,317 nM
same,TGI,DU-145 prostate,1030 nM
same,GI50,SNB-75 CNS,388 nM
